Source: patent US6465460B1, “Compositions and methods for prevention and treatment of protozoal disease” (New Ace Research Company, priority 1998, dated 2002)
Each block holds one molecule with its values, some of them ahead of it.

Assays:
[1] = assay type: physicochemical
Method: Diclazuril has a very low solubility in water (<1×10^−7 at pH 6.5) and can in fact be considered as practically-insoluble in water. A presently preferred plasma drug concentration of about 8 μg/ml for about 25-30 days is needed for the effective treatment of equine protozoan myeloencephalitis (EPM). The oral bioavailability of diclazuril is very low. Thus, a parenteral formulation is desired.
(§1) Sodium salt of diclazuril was dissolved in water. […] The pH of the aqueous solution was 12.4. To this solution, 1N HCl was added dropwise while stirring and the pH at which the solution began to turn cloudy was recorded.

in vivo = assay: in vivo; parameters: species or system horse
Method: OWENS, (about 1,000 lbs.) received 750 mg of diclazuril powder dissolved in 30 ml of DMSO, intravenously, twice on day one, at zero and zero plus one hours for a total dose of 1,500 mg. Blood samples were drawn at the indicated time points immediately before the next dosing and the solid circles [drawing 4] in FIG. 1 represent plasma concentrations of diclazuril after these administrations. Plasma concentrations of dicalzuril in ng/ml are represented on the vertical axis against time in days on the horizontal axis. […] Concentrations at 72 hr and 96 hr were not included in calculation following IV administration. Area Under the Curve (AUC from 0 to ∞): Intercept-Slope Method [formula] […] Cl=55.26 ml/min. […] ClH=QH. EH EH is lower than 0.3 so diclazuril is found to have low hepatic extraction ratio.

[2] = listed by JANSEEN Research Foundation; cited from earlier work
[3] = Repeated daily IV administration of diclazuril in DMSO to the horse DEEP POWDER: plasma levels; assay type: in vivo; details: horse 1160 lbs, 0.5 mg/lb (580 mg) in DMSO IV once a day for eight days, sampled 24 hours after each dose, read-out: final steady state plasma concentration of diclazuril
Method: The horse, DEEP POWDER, 1160 lbs., in Table 2 above was administered diclazuril at a dose of 0.5 mg/lb. (580 mg) in DMSO IV once a day for eight days. Plasma levels of diclazuril at 24 hours after each dose administration and just before the next day's dosing are represented by the solid circles [drawing 6]
in the above Table 2. Note bow the dose of […] yields a stepwise increasing plasma concentrations of diclazuril, yielding a final steady state plasma concentration of diclazuril of about 10,000 ng/ml.

pKa of diclazuril = assay type: physicochemical; details: aqueous solution of the sodium salt of diclazuril; inferred from pH stability study of the sodium salt; read-out: pKa inferred from precipitation pH
Method: (§2) The manufacturer of diclazuril, JANSEEN Research Foundation, listed the pKa of diclazuril to be 5.92 in its physico-chemical characteristics of diclazuril. It can be expected that at pH's above the pKa of the compound (i.e. pH>6), aqueous solution of diclazuril would stay in solution. Preliminary studies were conducted to determine the pH at which sodium salt would precipitate.
as §1

Babesia equi = details: horses treated for piroplasmosis; cited from earlier work
[4] = pH stability of sodium salt of diclazuril (dropwise 1N HCl until cloudy); assay type: physicochemical
Method: as §2, §1
This will not cause a problem as there are many drugs on the market that are formulated at higher pHs for exactly the same reason.

solubility in water (in words) [1]: completely insoluble in water
level of diclazuril in urine samples (in vivo): Not detectable
EH (hepatic extraction ratio) (in vivo; horse): lower than 0.3
AUC (in vivo; horse, iv): 452 µg·h/mL
clearance (in vivo; horse, iv): 55.3 mL/min
half-life (in vivo; horse, iv): ~48 h
concentration at 24 h [3]: ~10000 ng/mL
pKa (pKa of diclazuril): ~10.5
SMILES: N#CC(c1ccc(Cl)cc1)c1c(Cl)cc(-n2ncc(=O)[nH]c2=O)cc1Cl (stereo not drawn) [diclazuril]
pKa listed by manufacturer [2]: 5.92

SMILES: O=C(Nc1cccc(C2=NCCN2)c1)Nc1cccc(C2=NCCN2)c1 [imidocarb dipropionate]
adverse side effects of treatment (Babesia equi): salivation, restlessness, colic and gastrointestinal tract hypermotility

pH at which the solution began to turn cloudy ([4]; 1N HCl added dropwise while stirring, preliminary study): 10.5
pH of the aqueous solution ([4]; sodium salt dissolved in water): 12.4
SMILES: N#CC(c1ccc(Cl)cc1)c1c(Cl)cc(-n2ncc(=O)[n-]c2=O)cc1Cl.[Na+] (stereo not drawn) [sodium salt of diclazuril]
